By IC50 is commonly meant the concentration at which inhibition is half-maximal. As usually defined, the melting point is the temperature, or range, at which the solid turns liquid.

For 23 compounds, IC50, inhibition and melting point results are on record in paper PMC6471201, “Discovery of Indoleamine 2,3-Dioxygenase 1 (IDO-1) Inhibitors Based on Ortho-Naphthaquinone-Containing Natural Product” (Molecules, 2019).

In data set [1] the target is T1, hIDO-1 (Homo sapiens, UniProt P14902). As to the kind of experiment: hIDO-1 enzymatic assay. The format is biochemical. The following applies: mean ± SE of two independent experiments; for IC50: rhIDO-1, L-tryptophan substrate, 37 °C 30 min; for inhibition at 20 µM: 20 µM compound, read-out: Inhibitory Rate at 20 µM (enzymatic).
Data set [2] has as its target T1, hIDO-1. As to the kind of experiment: Cell-based assay of IDO-1 activity in HEK 293 cells transfected with pcDNA3.1-hIDO-1. The arrangement: expressed in transfected cells; host or cells: HEK 293. The following applies: HEK 293-hIDO-1 cells, 12-h incubation; mean ± SE of two independent experiments; read-out: Cellular IC50.
The test system of a further data set is IDO-1. Details: method as in PMID 30108982. Particulars: known inhibitors, Figure 1; cited from earlier work.

T1 sequence (P14902 whole entry): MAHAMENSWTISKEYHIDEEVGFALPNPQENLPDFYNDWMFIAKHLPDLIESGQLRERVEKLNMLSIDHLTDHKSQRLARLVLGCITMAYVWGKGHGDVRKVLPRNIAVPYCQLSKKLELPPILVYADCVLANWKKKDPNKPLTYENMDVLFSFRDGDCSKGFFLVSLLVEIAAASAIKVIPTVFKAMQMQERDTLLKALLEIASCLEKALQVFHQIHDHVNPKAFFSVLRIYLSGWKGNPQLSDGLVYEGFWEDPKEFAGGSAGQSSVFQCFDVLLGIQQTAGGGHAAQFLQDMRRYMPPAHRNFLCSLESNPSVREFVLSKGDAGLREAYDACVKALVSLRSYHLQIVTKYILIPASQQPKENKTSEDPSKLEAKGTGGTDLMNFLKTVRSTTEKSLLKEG

On hIDO-1 [1], `Cc1coc2c1C(=O)C(=O)c1c-2ccc2c1C(OC(=O)c1ccoc1)CCC2(C)C` (centres unmarked) [Compound 7k] gave an IC50 of 4.6 ± 2.81 µM.

In the case of `CCC(=O)OC1CCC(C)(C)c2ccc3c(c21)C(=O)C(=O)c1c-3oc(-c2ccccc2)c1C` (centres unmarked) [Compound 7d], the inhibition at 20 µM at hIDO-1 [1] is 21.5 ± 1.1%.

Take `CCC(=O)OC1CCC(C)(C)c2ccc3c(c21)C(=O)C(=O)c1c(C)coc1-3` (centres unmarked) [Compound 7b]: the IC50 against hIDO-1 [1] worked out at 4.72 ± 0.3 µM.

`Cc1coc2c1C(=O)C(=O)c1c-2ccc2c1C(=O)C=CC2(C)C` [Compound 14, 1,6,6-trimethylphenanthro[1,2-b]furan-9,10,11(6H)-trione] came in with a melting point of 158.3 to 160.8 °C. Besides, on hIDO-1 [1], the inhibition at 20 µM was determined as 52.7 ± 2.5% and the IC50 is about 20 µM. Further, the IC50 on hIDO-1 [2] was over 10 µM.

As for `Cc1c(-c2c(C)c(O)c3ccccc3c2O)oc2c1C(=O)C(=O)c1c-2ccc2c1CCCC2(C)C` [Compound 5], the IC50 in the data set on IDO-1 was 4.1 µM.

For the compound `CC(=O)OC1CCC(C)(C)c2ccc3c(c21)C(=O)C(=O)c1c(C)coc1-3` (centres unmarked) [Compound 7a], on hIDO-1 [1], it took 3.72 ± 0.45 µM to reach half-maximal inhibition (IC50).

For the compound `Cc1coc2c1C(=O)C(=O)c1c-2ccc2c1C(OC(=O)C1CCCCC1)CCC2(C)C` (centres unmarked) [Compound 7h], on hIDO-1 [1], the inhibition at 20 µM is 48 ± 3.2%.

In turn, `Cc1coc2c1C(=O)C(=O)c1c-2ccc2c1C(OC(=O)C1CC1)CCC2(C)C` (centres unmarked) [Compound 7g] returned an IC50 on hIDO-1 [1] of 7.05 ± 2.46 µM.

For the compound `Cc1coc2c1C(=O)C(=O)c1c-2ccc2c1CCCC2(C)C` [Compound 6, Tan-IIA, reference compound], at hIDO-1 [1], the inhibition at 20 µM turned out to be 23.1 ± 1.6% and the IC50 was over 20 µM.

In turn, `CCOC(=O)/C=C/C(=O)OC1CCC(C)(C)c2ccc3c(c21)C(=O)C(=O)c1c(C)coc1-3` (centres unmarked) [Compound 7e] returned an IC50 at hIDO-1 [1] of 7.47 ± 3.58 µM.

At hIDO-1 [1], `Cc1coc2c1C(=O)C(=O)c1c-2ccc2c1C(OC(=O)c1nccs1)CCC2(C)C` (centres unmarked) [Compound 7l] showed an IC50 of 5.71 ± 0.47 µM.

Turning to `Cc1coc2c1C(=O)C(=O)c1c-2ccc2c1C(O)CCC2(C)C` (centres unmarked) [Compound 8], the IC50 against hIDO-1 [1] is 2.83 ± 0.12 µM.

Compound `Cc1coc2c1C(=O)C(=O)c1c-2ccc2c1C=CC(O)C2(C)C` (centres unmarked) [Compound 10, 7-hydroxy-1,6,6-trimethyl-6,7-dihydrophenanthro[1,2-b]furan-10,11-dione] returned a melting point of 185.2 to 188.5 °C. Further, the IC50 on hIDO-1 [1] was determined as 3.1 ± 1.02 µM. In addition, the IC50 on hIDO-1 [2] was over 10 µM.

As to `Cc1coc2c1C(=O)C(=O)c1c-2ccc2c1C(OC(=O)c1cccs1)CCC2(C)C` (centres unmarked) [Compound 7j], the inhibition at 20 µM on hIDO-1 [1] worked out at 60.4 ± 3.9%.

Take `Cc1coc2c1C(=O)C(=O)c1c-2ccc2c1C(OC(=O)c1cnccn1)CCC2(C)C` (centres unmarked) [Compound 7m]: half-maximal inhibition at hIDO-1 [1] (IC50) required 4.96 ± 2.02 µM.

Take `CC1(C)C(=O)C=Cc2c1ccc1c2C(=O)C(=O)c2c(CO)coc2-1` [Compound 12, 1-(hydroxymethyl)-6,6-dimethylphenanthro[1,2-b]furan-7,10,11(6H)-trione]: the values for the IC50 at hIDO-1 [1] and at hIDO-1 [2] were 0.37 ± 0.02 µM and 3.85 ± 0.86 µM, respectively.

Turning to `CC1(C)C=CC(=O)c2c1ccc1c2C(=O)C(=O)c2c(CO)coc2-1` [Compound 15, 1-(hydroxymethyl)-6,6-dimethylphenanthro[1,2-b]furan-9,10,11(6H)-trione], at hIDO-1 [1], the inhibition at 20 µM came to 68 ± 8.6% and the IC50 was about 20 µM.

Take `Cc1coc2c1C(=O)C(=O)c1c-2ccc2c1C(OC(=O)c1ccccc1)CCC2(C)C` (centres unmarked) [Compound 7i]: on hIDO-1 [1], the inhibition at 20 µM was 54.5 ± 2.3%.

`CCC(=O)OC1CCC(C)(C)c2ccc3c(c21)C(=O)C(=O)c1c-3oc(-c2ccsc2)c1C` (centres unmarked) [Compound 7c]: the inhibition at 20 µM on hIDO-1 [1] is 29.3 ± 2.2%.

On to `Cc1cccc2c3c(ccc12)C1=C(C(=O)C3=O)C(C)CO1` (centres unmarked) [Compound 4], for which, in the data set with IDO-1, the IC50 was 1.3 µM.

With `Cc1coc2c1C(=O)C(=O)c1c-2ccc2c1C=CC(=O)C2(C)C` [Compound 11, 1,6,6-trimethylphenanthro[1,2-b]furan-7,10,11(6H)-trione], the melting point fell in the range of 261.2 to 262.8 °C. On hIDO-1 [1], this compound came in with an IC50 of 0.84 ± 0.26 µM. Moreover, the 50% inhibitory concentration (IC50) at hIDO-1 [2] is over 10 µM.

`Cc1coc2c1C(=O)C(=O)c1c-2ccc2c1C(OC(=O)CO)CCC2(C)C` (centres unmarked) [Compound 7f] displayed an IC50 against hIDO-1 [1] of 2.74 ± 0.1 µM.

With `Cc1coc2c1C(=O)C(=O)c1c-2ccc2c1C=CCC2(C)C` [Compound 9, 1,6,6-trimethyl-6,7-dihydrophenanthro[1,2-b]furan-10,11-dione], the inhibition at 20 µM at hIDO-1 [1] came out at 61.2 ± 2.1%. Also, the values for the IC50 in the data set on IDO-1 and at hIDO-1 [2] were 4.68 µM and over 10 µM, respectively.
